One test concerns NCI-H1299. As to the kind of experiment: MTS assay, NCI-H1299 cells. To be noted: Homo sapiens, 72 hours. The class given is cell-based. The method, boiled down: (§1)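 First, seed 3000 cells per well in low-serum (1% FBS) DMEM and culture 18 h. Next, add compounds prepared at 300× in DMSO and diluted 1:40 in DMEM; incubate 72 h. Finally, add MTS/PMS for 4 h and measure absorbance at 492 nm.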

The subject of the next test is PC-3. Briefly: MTS assay, PC-3 cells. It counts as cell-based. To be noted: Homo sapiens, 72 hours. The protocol:
Cells were maintained at 37° C., 5% CO2 in DMEM media supplemented with 1% fetal bovine serum, penicillin/streptomycin and fungizone (Invitrogen). Cells were seeded into 96-well tissue culture plates at 3000 per well and cultured at 37° C. for 18 hours. Test compounds were dissolved and diluted to 300× in DMSO then diluted 1:40 in DMEM. Cells were incubated with test compounds for 72 hours followed by incubation with tetrazolium compound (3-(4,5-dimethylthiazol-2-yl)-5-(3-carboxymethoxyphenyl)-2-(4-sulfophenyl)-2H-tetrazolium, inner salt; MTS) and the electron coupling reagent, phenazine methosulfate (PMS) for 4 hours. […] The ability of compounds to inhibit cell growth in this assay is correlated with the reduction of dehydrogenase enzyme activity found in metabolically active cells. The measurement of the absorbance of the formazan was assessed using an ENVISION™ (Perkin Elmer) microplate reader at 492 nm. The calculated IC50 value is the concentration of the test compound that causes a 50% decrease in the absorbance.
On the technique in general: Tetrazolium dyes change colour on reduction, which living cells bring about.

A further test deals with MDA-MB-231. Briefly: MTS assay, MDA-MB-231 cells. The class given is cell-based. To be noted: Homo sapiens, 72 hours. The method, boiled down: as §1
For the next test, the target named is ABL (Homo sapiens, UniProt P00519). As to the kind of experiment: ABL Kinase Activity Assay (Elisa), ABL. It counts as biochemical. To be noted: ATP 100 μM, read-out: Abl Enzymetic assay (Elisa) % inhibition. The method, boiled down:
(§2)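 Recombinant ABL or ABL T315I (0.089 nM final) preincubated 20 min with compound, then reacted 1 h at room temperature with 100 μM ATP and 128 nM biotinylated AblTide in Tris pH 7.0/MgCl2 buffer. Phosphopeptide captured on streptavidin and detected by anti-phosphotyrosine ELISA with alkaline phosphatase secondary and Attophos fluorescence.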

In a further test the target is ABL T315I (Homo sapiens, UniProt P00519, T315I). Briefly: ABL Kinase Activity Assay (Elisa), ABL T315I. The class given is biochemical. To be noted: ATP 100 μM, read-out: Abl(T315I) Enzymetic assay (Elisa) % inhibition. The method, boiled down: as §2
A further test concerns KATO III. As to the kind of experiment: MTS assay, KATO III cells. The class given is cell-based. To be noted: Homo sapiens, 72 hours. The method, boiled down: as §1
For a further test, the system named is DLD-1. Briefly: MTS assay, DLD-1 cells. It counts as cell-based. The conditions noted are these: Homo sapiens, 72 hours. The method, boiled down:
as §1

Another test has as its system PACA-2. As to the kind of experiment: MTS assay, PACA-2 cells. The conditions noted are these: 72 hours. It counts as cell-based. The method, boiled down: as §1

The inhibition is the change of the read-out against control, counted positive when it falls. On to `FC(F)(F)c1ccccc1CNc1ncc2c(n1)-c1cccnc1Nc1cnccc1-2` [Example 3, N-[2-(trifluoromethyl)benzyl]-9H-dipyrido[2,3-b:4′,3′-f]pyrimido[4,5-d]azepin-2-amine], for which the inhibition at 10 µM with NCI-H1299 was 50 to 79%; in the test on PC-3, less than 50%; in the test with MDA-MB-231, less than 50%; on ABL, 50 to 79%; at ABL T315I, 80 to 100%; in the test with KATO III it was less than 50%. Moreover, the inhibition at 10 µM in the test on DLD-1 and with PACA-2 was less than 50% each time.

`CN(C)CCCCNc1ncc2c(n1)-c1cccnc1Nc1cnccc1-2` [Example 51, N′-9H-dipyrido[2,3-b:4′,3′-f]pyrimido[4,5-d]azepin-2-yl-N,N-dimethylbutane-1,4-diamine]: the inhibition at 10 µM in the test on NCI-H1299 was less than 50%; in the test on PC-3, 80 to 100%; in the test on MDA-MB-231, 80 to 100%; on ABL it was 50 to 79%; on ABL T315I it was less than 50%; in the test on KATO III, 80 to 100%. Besides, the inhibition at 10 µM with DLD-1 and in the test on PACA-2 was less than 50% each time.

As to `COc1ccccc1CNc1ncc2c(n1)-c1cccnc1Nc1cnccc1-2` [Example 22, N-(2-methoxybenzyl)-9H-dipyrido[2,3-b:4′,3′-f]pyrimido[4,5-d]azepin-2-amine], the inhibition at 10 µM in the test on NCI-H1299 was 50 to 79%; in the test on PC-3, 50 to 79%; in the test with MDA-MB-231, 80 to 100%; at ABL, less than 50%; on ABL T315I it was less than 50%; with KATO III it was less than 50%. The figures for the inhibition at 10 µM in the test with DLD-1 and in the test with PACA-2 were 50 to 79% and less than 50%, respectively.

As to `Clc1ccccc1CNc1ncc2c(n1)-c1cccnc1Nc1cnccc1-2` [Example 8, N-(2-chlorobenzyl)-9H-dipyrido[2,3-b:4′,3′-f]pyrimido[4,5-d]azepin-2-amine], the inhibition at 10 µM was 80 to 100% with NCI-H1299; 80 to 100% with PC-3; 80 to 100% in the test with MDA-MB-231; 50 to 79% at ABL; 80 to 100% on ABL T315I; 80 to 100% with KATO III. In addition, the inhibition at 10 µM in the test with DLD-1 and with PACA-2 was 80 to 100% each time.

As for `Clc1ccc(CNc2ncc3c(n2)-c2cccnc2Nc2cnccc2-3)cc1` [Example 13, N-(4-chlorobenzyl)-9H-dipyrido[2,3-b:4′,3′-f]pyrimido[4,5-d]azepin-2-amine], the inhibition at 10 µM is 50 to 79% with NCI-H1299; less than 50% with PC-3; less than 50% in the test on MDA-MB-231; 50 to 79% on ABL; 80 to 100% at ABL T315I; 50 to 79% with KATO III. The inhibition at 10 µM in the test on DLD-1 was 50 to 79%; in the test with PACA-2 it was less than 50%.

For `FC(F)(F)c1ccc(CNc2ncc3c(n2)-c2cccnc2Nc2cnccc2-3)cc1` [Example 21, N-[4-(trifluoromethyl)benzyl]-9H-dipyrido[2,3-b:4′,3′-f]pyrimido[4,5-d]azepin-2-amine], the inhibition at 10 µM in the test on NCI-H1299 is 80 to 100%; in the test on PC-3, 80 to 100%; in the test on MDA-MB-231 it was 80 to 100%; at ABL, less than 50%; on ABL T315I it was less than 50%; with KATO III, 80 to 100%. Also, the inhibition at 10 µM with DLD-1 and with PACA-2 was 80 to 100% throughout.

In the case of `Fc1cccc(CNc2ncc3c(n2)-c2cccnc2Nc2cnccc2-3)c1` [Example 39, N-(3-fluorobenzyl)-9H-dipyrido[2,3-b:4′,3′-f]pyrimido[4,5-d]azepin-2-amine], the inhibition at 10 µM in the test with NCI-H1299, in the test with PC-3, with MDA-MB-231, on ABL, at ABL T315I and in the test on KATO III was 80 to 100% in each case. The inhibition at 10 µM with DLD-1 and in the test with PACA-2 was 80 to 100% each time.

On to `Cc1cccc(CNc2ncc3c(n2)-c2cccnc2Nc2cnccc2-3)c1` [Example 40, N-(3-methylbenzyl)-9H-dipyrido[2,3-b:4′,3′-f]pyrimido[4,5-d]azepin-2-amine], for which the inhibition at 10 µM lay in the range of 50 to 79% in the test with NCI-H1299; 80 to 100% with PC-3; 50 to 79% in the test with MDA-MB-231; 80 to 100% on ABL; 80 to 100% at ABL T315I; 50 to 79% in the test with KATO III. The inhibition at 10 µM in the test with DLD-1 was 50 to 79%; with PACA-2 it was 80 to 100%.

As for `CCCN1CCC(Nc2ncc3c(n2)-c2cccnc2Nc2cnccc2-3)CC1` [Example 23, N-(1-propylpiperidin-4-yl)-9H-dipyrido[2,3-b:4′,3′-f]pyrimido[4,5-d]azepin-2-amine], the inhibition at 10 µM with NCI-H1299 was 80 to 100%; in the test on PC-3 it was 80 to 100%; in the test on MDA-MB-231, 80 to 100%; on ABL, 50 to 79%; at ABL T315I, less than 50%; with KATO III, 80 to 100%. In addition, the inhibition at 10 µM in the test with DLD-1 and in the test with PACA-2 was 80 to 100% in each case.

With `c1cnc2c(c1)-c1nc(NC3CCCCC3)ncc1-c1ccncc1N2` [Example 35, N-cyclohexyl-9H-dipyrido[2,3-b:4′,3′-f]pyrimido[4,5-d]azepin-2-amine], the inhibition at 10 µM with NCI-H1299 was 50 to 79%; in the test with PC-3, less than 50%; in the test with MDA-MB-231 it was less than 50%; at ABL, 80 to 100%; at ABL T315I, 80 to 100%; in the test with KATO III it was 50 to 79%. For the same compound, the inhibition at 10 µM with DLD-1 and with PACA-2 was less than 50% each time.

As to `CCCCNc1ncc2c(n1)-c1cccnc1Nc1cnccc1-2` [Example 7, N-butyl-9H-dipyrido[2,3-b:4′,3′-f]pyrimido[4,5-d]azepin-2-amine], the inhibition at 10 µM is less than 50% with NCI-H1299; less than 50% in the test with PC-3; 50 to 79% in the test on MDA-MB-231; 80 to 100% at ABL; 80 to 100% on ABL T315I; 50 to 79% in the test on KATO III. The inhibition at 10 µM with DLD-1 and in the test on PACA-2 was less than 50% each time.

For the compound `Fc1cccc(CCNc2ncc3c(n2)-c2cccnc2Nc2cnccc2-3)c1` [Example 25, N-[2-(3-fluorophenyl)ethyl]-9H-dipyrido[2,3-b:4′,3′-f]pyrimido[4,5-d]azepin-2-amine], the inhibition at 10 µM was 80 to 100% in the test on NCI-H1299; 80 to 100% in the test with PC-3; 80 to 100% in the test with MDA-MB-231; 50 to 79% on ABL; 80 to 100% on ABL T315I; 80 to 100% in the test on KATO III. In addition, the inhibition at 10 µM in the test with DLD-1 and in the test with PACA-2 was 80 to 100% each time.

Take `c1ccc(-c2ccc(CNc3ncc4c(n3)-c3cccnc3Nc3cnccc3-4)cc2)cc1` [Example 34, N-(biphenyl-4-ylmethyl)-9H-dipyrido[2,3-b:4′,3′-f]pyrimido[4,5-d]azepin-2-amine]: the inhibition at 10 µM in the test with NCI-H1299, with PC-3, in the test on MDA-MB-231, at ABL, at ABL T315I and with KATO III was 80 to 100% each time. In addition, the inhibition at 10 µM in the test on DLD-1 and with PACA-2 was 80 to 100% throughout.

Source of the values: patent publication US8349827B2, “Substituted dipyrido-pyrimido-diazepine and benzo-pyrido-pyrimido compounds” (ArQule, Inc., priority 2009, dated 2013).
